“Also recorded” adds a separate entry of the source.
Columns and labels:
[1] = system: homogenized annulus tissue; conditions: bovine
Procedure: (§1) Increasing concentrations of protein crosslinkers were added to homogenized annulus tissue and incubated for either 1 hr (EDC, GP, MG, PA and GA), 2 hrs (TG) or 6 hrs (DT and LT). Crosslinking was quantified by determining the amount of hydroxyproline (HYP) released from the tissue by collagenase digestion.
(§2) Homogenized annulus tissue was treated with sub-saturating concentrations of various crosslinkers at varying pH and incubated for either 1 hr (EDC, GP, MG, PA and GA), 2 hrs (TG) or 6 hrs (LT). Crosslinking was quantified by determining the amount of hydroxyproline (HYP) released from the tissue by collagenase digestion.
(§3) In order to determine the effective concentration range for various crosslinking reagents we incubated samples of annulus tissue in increasing concentrations of either genipin (GP), methylglyoxal (MG), proanthrocyanidin (PA), L-threose (LT), D-threose (DT), dimethylaminopropyl) carbodiimide hydrochloride (EDC) or transglutaminase (TG). Crosslinking efficiency was measured indirectly by monitoring the release of peptides containing hydroxyproline upon subsequent digestion with collagenase. Glutaraldehyde (GA), a commonly used, but highly toxic protein crosslinker was used as a positive control.
(§4) To test this hypothesis, the inventors subjected calf annulus fibrosus tissue to crosslinking with sub-saturating levels of our reagents at varying pH. In order to maintain optimal buffering capacity at each pH, different buffers were selected for each point.

[2] = in water; proposed values; cited from earlier work
[3] = system: homogenized annulus tissue; test: Crosslinking of annulus tissue quantified by hydroxyproline release upon collagenase digestion; conditions: for concentration at which crosslinking was complete / a plateau was reached: FIG. 1, 1 hr (MG), 6 hrs (DT and LT); for effect of phosphate on crosslinking: Tris buffer pH 8, increasing concentrations of sodium phosphate; for pH: optimized pH for crosslinking; for pH dependence of crosslinking: sub-saturating crosslinker, pH 4-9 with a different buffer at each pH (FIG. 2, FIG. 3); for effect of buffer (EPPS vs Tris) on crosslinking: 100 mM EPPS or 100 mM Tris, GP at pH 9
Procedure: as §1, §2, §3, §4

[4] = at 20° C.; cited from earlier work
[5] = sub-saturating MG, 100 mM MOPS pH 7
[6] = saturating crosslinker concentration, Table 5

| Molecule | T1/2 [1] | concentration at which crosslinking was complete / a plateau was reached [3] | pH ([3]; Table 5) | [Saturating] [3, 6] | pH dependence of crosslinking [3] | other results |
| --- | --- | --- | --- | --- | --- | --- |
| CC(=O)C=O [Methylglyoxal, methylglyoxal] | 14 to 20 min | 50 mM | 8-9 | – | – | max solubility [2]: about 6 M; enhancement of crosslinking by phosphate ([3]; 100 mM EPPS pH 8, 100 mM potassium phosphate, p=0.1): approximately 3 fold; effect of phosphate on crosslinking [3]: enhance disc tissue crosslinking in a dose-dependent manner; [Saturating] ([3]; at pH 7): 30 to 50 mM; [Saturating] ([3]; at pH 8 (100 mM EPPS buffer), listed as MG): 10 mM; borohydride concentration at which the crosslinking reaction was enhanced [3, 5]: 1 to 5 mM; effect of 10 mM borohydride on crosslinking [3, 5]: inhibitory; borohydride concentration at which enhancement was observed ([3]; sub-saturating MG, EPPS buffer pH 8.0): below 1.5 mM; activity in EPPS when compared to Tris ([3]; sub-saturating MG, pH 8, 100 mM buffer, p<0.0001, n=10): ~2 fold; pH dependence of crosslinking ([3]; listed as MG): function better in disc tissue at the higher pH levels; also recorded: equally efficient at pH 8 and 9; also recorded: marked increase in its crosslinking ability at pH 8 compared to pH 7 |
| proanthrocyanidin | <5 min | – | 5-9 | 0.1% | relatively insensitive to pH | effect of buffer (EPPS vs Tris) on crosslinking [3]: did not see any difference; effect of phosphate on crosslinking [3]: did not have any substantial |
| O=CCCCC=O [Glutaraldehyde, reference compound] | <5 min | – | 8-9 | 1 to 2 mM | – | – |
| O=C[C@H](O)[C@@H](O)CO [L-Threose, L-threose] | 150 min | approximately 50 mM | 8-9 | 50 mM | function better in disc tissue at the higher pH levels | max solubility [2]: comparable to MG; effect of buffer (EPPS vs Tris) on crosslinking [3]: did not see any difference |
| O=C[C@@H](O)[C@H](O)CO [D-Threose, D-threose] | – | approximately 50 mM | – | 50 mM | – | – |
| tris(hydroxymethyl)aminomethane | – | – | – | – | – | pKa [4]: 8.3 |
| CCN=C=NCCCN(C)C.Cl [EDC, 1-ethyl-3-[3-dimethylaminopropyl]carbodiimide hydrochloride] | – | – | 6 | 2.5 to 5 mM | required a relatively narrow pH range | – |
| transglutaminase (protein, UniProt P21980 2-687, looked up) Protein-glutamine …: AEELVLERCDLELETNGRDHHTADLCREKLVVRRGQPFWLTLHFEGRNYEASVDSLTFSVVTGPAPSQEAGTKARFPLRDAVEEGDWTATVVDQQDCTLSLQLTTPANAPIGLYRLSLEASTGYQGSSFVLGHFILLFNAWCPADAVYLDSEEERQEYVLTQQGFIYQGSAKFIKNIPWNFGQFEDGILDICLILLDVNPKFLKNAGRDCSRRSSPVYVGRVVSGMVNCNDDQGVLLGRWDNNYGDGVSPMSWIGSVDILRRWKNHGCQRVKYGQCWVFAAVACTVLRCLGIPTRVVTNYNSAHDQNSNLLIEYFRNEFGEIQGDKSEMIWNFHCWVESWMTRPDLQPGYEGWQALDPTPQEKSEGTYCCGPVPVRAIKEGDLSTKYDAPFVFAEVNADVVDWIQQDDGSVHKSINRSLIVGLKISTKSVGRDEREDITHTYKYPEGSSEEREAFTRANHLNKLAEKEETGMAMRIRVGQSMNMGSDFDVFAHITNNTAEEYVCRLLLCARTVSYNGILGPECGTKYLLNLNLEPFSEKSVPLCILYEKYRDCLTESNLIKVRALLVEPVINSYLLAERDLYLENPEIKIRILGEPKQKRKLVAEVSLQNPLPVALEGCTFTVEGAGLTEEQKTVEIPDPVEAGEEVKVRMDLLPLHMGLHKLVVNFESDKLKAVKGFRNVIIGPA | – | – | 7-8 | – | required a relatively narrow pH range | [Saturating] ([3]; 2 hrs incubation, highest concentration tested 2 U/ml): >2 U/ml; [Saturating] ([3]; 2 hrs incubation, highest concentration tested 2 U/ml, listed as TG): > 2 U/ml |

From patent US8283322B2, “Formulations for nonsurgical exogenous crosslink therapy” (Orthopeutics, LP, priority 2008, dated 2012)
